Data set [1] can be described thus: Pharmacokinetic studies for CBD- and THC-loaded SEDDS based on tributyrin. Conditions: oral, 0.125 mg THC/2.5 mg CBD (CBD:THC 20:1). On the procedure:
The PK studies were carried out on rats. Three animals were used in each time point. At each test point, animals were sacrificed and blood (5-6 ml) withdrawn from the heart and collected in heparinized tubes.
Each rat was orally administered with 1 mil of the test formulation. Blood samples were withdrawn at different time points: 0, 0.5, 1, 2, 4, 6, 10 and 24 hours. The blood samples were centrifuged at 4000 rpm and the plasma was separated and collected in clean polyethylene tubes and kept at −80° C. until analysis using LC-MS/MS.
TB1 liquid SEDDS formulations were tested: 200 parts tributyrin, 350 parts Cremophor RH40, 350 parts PEG400, 350 parts PG.
The HPLC system consisted of a Dionex/Thermo Scientific UltiMate 3000 UHPLC systems fitted with a 100 μL sample loop, Dionex™ UltiMate™ 3000 Rapid Separation Diode Array Detector, and integration software Chromeleon Chromatography Data System (CDS).
Chromatographic separation was performed with guard column Luna® 5 μm C18(2) 100 Å, LC Column 150×4.6 mm, using an isocratic mobile phase of water (0.1% formic acid): acetonitrile (0.1% formic acid) 10:90 at a flow rate of 1 mL/min for 10 in minisocratic condition. The column temperature was 40° C. and the injection volume was 100 μL.
Dual ion electrospray ionization (DUIS) in positive was used for ionization of the analytes on the ISQ™ EC. […]

The conditions of data set [2]: sublingual drops, cited from earlier work.

As usually defined, the Tmax is the time from dosing to the highest level. What is called Cmax is the maximum level reached in the sampled fluid or tissue.

Like-named read-outs stand apart in the source and are kept apart here.

As for `CCCCCc1cc(O)c2c(c1)OC(C)(C)[C@@H]1CCC(C)=C[C@@H]21` [THC, tetrahydrocannabinol], in data set [1] (Table 20, THC, semi-solid SEDDS), the Tmax turned out to be 2.00 h. Also, in data set [1] (Table 21-2, THC in tributyrin as a carrier (reference)), the C1/F_obs was 66.835 mL/min/kg.

On to `C=C(C)[C@@H]1CCC(C)=C[C@H]1c1c(O)cc(CCCCC)cc1O` [CBD, cannabidiol], for which, in data set [2] (CBD dose 10 mg), the Cmax was 2.05 ng/mL and the Tmax is 2.17 h. In data set [2] (CBD dose 20 mg), the Cmax is 2.58 ng/mL and the Tmax is 1.67 h.
